From ChEMBL document CHEMBL4725367, “Novel anticancer Hsp90 inhibitor disubstituted pyrazolyl 2-aminopyrimidine compound 7t induces cell cycle arrest and apoptosis via mitochondrial pathway in MCF-7 cells” (Bioorg Med Chem Lett, 2020)
Active and inactive are the calls of the source. The calls are words filed in the database; no cut-off is given here.

How the values were obtained:
[1] = molecular target: T1, Heat shock protein HSP90 (Homo sapiens) (UniProt P07900+P08238); experiment: Inhibition of HSP90 in human MCF7 cells assessed as induction of morphological changes by measuring apoptotic body formation at 1 uM by acridine orange/ethidium bromide staining based fluorescence microscopy analysis; assay type: cell-based
[2] = molecular target: T1, Heat shock protein HSP90 (Homo sapiens); experiment: Inhibition of HSP90 in human MCF7 cells assessed as induction of morphological changes by measuring nuclei condensation at 1 uM by acridine orange/ethidium bromide staining based fluorescence microscopy analysis; assay type: cell-based
[3] = molecular target: T1, Heat shock protein HSP90 (Homo sapiens); experiment: Inhibition of HSP90 in human MCF7 cells assessed as induction of apoptosis by measuring early apototic cells at 1 uM measured after 24 hrs by annexinV-FITC/propidium iodide staining based flow cytometry (reference value: 1.31 %); assay type: cell-based; design: scale not given: the % may be the effect or the level left
[4] = molecular target: T1, Heat shock protein HSP90 (Homo sapiens); experiment: Inhibition of HSP90 in human MCF7 cells assessed as induction of nuclear morphological changes by measuring nuclear fragmentation at 1 uM by DAPI staining based fluorescence microscopy analysis; assay type: cell-based
[5] = molecular target: T1, Heat shock protein HSP90 (Homo sapiens); experiment: Inhibition of HSP90 in human MCF7 cells assessed as induction of nuclear morphological changes by measuring horse shoe shaped nuclei formation at 1 uM by DAPI staining based fluorescence microscopy analysis; assay type: cell-based
[6] = molecular target: T1, Heat shock protein HSP90 (Homo sapiens); experiment: Inhibition of HSP90 in human MCF7 cells assessed as cell cycle arrest by measuring accumulation at Sub-G1 phase at 1 uM measured after 24 hrs by RNaseA/propidium iodide staining based flow cytometric analysis (reference value: 3.75 %); design: scale not given: the % may be the effect or the level left
[7] = molecular target: T1, Heat shock protein HSP90 (Homo sapiens); experiment: Inhibition of HSP90 in human MCF7 cells assessed as induction of apoptosis by measuring necrotic cells at 1 uM measured after 24 hrs by annexinV-FITC/propidium iodide staining based flow cytometry (reference value: 0.01 %); assay type: cell-based; design: scale not given: the % may be the effect or the level left
[8] = molecular target: T1, Heat shock protein HSP90 (Homo sapiens); experiment: Inhibition of HSP90 in human MCF7 cells assessed as cell cycle arrest by measuring accumulation at G2/M phase at 1 uM measured after 24 hrs by RNaseA/propidium iodide staining based flow cytometric analysis (reference value: 25.08 %); design: scale not given: the % may be the effect or the level left
[9] = molecular target: T1, Heat shock protein HSP90 (Homo sapiens); experiment: Inhibition of HSP90 in human MCF7 cells assessed as cell cycle arrest by measuring accumulation at G0/G1 phase at 1 uM measured after 24 hrs by RNaseA/propidium iodide staining based flow cytometric analysis (reference value: 39.10 %); design: scale not given: the % may be the effect or the level left
[10] = molecular target: T1, Heat shock protein HSP90 (Homo sapiens); experiment: Inhibition of HSP90 in human MCF7 cells assessed as induction of apoptosis by measuring total apoptotic and dead cell population at 1 uM measured after 24 hrs by annexinV-FITC/propidium iodide staining based flow cytometry (reference value: 9.23 %); design: scale not given: the % may be the effect or the level left
[11] = molecular target: T1, Heat shock protein HSP90 (Homo sapiens); experiment: Inhibition of HSP90 in human MCF7 cells assessed as induction of mitochondrial membrane potential loss by measuring cell population with mitochondrial membrane potential collapse at 1 uM after 24 hrs by JC1 staining-based flow cytometry analysis (reference value: 6.53 %); design: scale not given: the % may be the effect or the level left
[12] = molecular target: T1, Heat shock protein HSP90 (Homo sapiens); experiment: Inhibition of HSP90 in human MCF7 cells assessed as increase in ROS generation by measuring fluorescence intensity at 10 uM after 24 hrs by DCFDA staining based flow cytometry; assay type: cell-based
[13] = molecular target: T1, Heat shock protein HSP90 (Homo sapiens); experiment: Inhibition of HSP90 in human MCF7 cells assessed as induction of apoptosis by measuring late apototic cells at 1 uM measured after 24 hrs by annexinV-FITC/propidium iodide staining based flow cytometry (reference value: 7.91 %); assay type: cell-based; design: scale not given: the % may be the effect or the level left
[14] = molecular target: T1, Heat shock protein HSP90 (Homo sapiens); experiment: Inhibition of HSP90 in human MCF7 cells assessed as induction of mitochondrial membrane potential loss by measuring cell population with intact mitochondrial membrane potential at 1 uM after 24 hrs by JC1 staining-based flow cytometry analysis (reference value: 92.39 %); design: scale not given: the % may be the effect or the level left
[15] = molecular target: T1, Heat shock protein HSP90 (Homo sapiens); experiment: Inhibition of HSP90 in human MCF7 cells assessed as induction of morphological changes by measuring membrane blebbing at 1 uM by acridine orange/ethidium bromide staining based fluorescence microscopy analysis; assay type: cell-based
[16] = molecular target: T1, Heat shock protein HSP90 (Homo sapiens); experiment: Inhibition of HSP90 in human MCF7 cells assessed as induction of apoptosis by measuring live cells at 1 uM measured after 24 hrs by annexinV-FITC/propidium iodide staining based flow cytometry (reference value: 90.77 %); assay type: cell-based; design: scale not given: the % may be the effect or the level left
[17] = molecular target: T1, Heat shock protein HSP90 (Homo sapiens); experiment: Inhibition of HSP90 in human MCF7 cells assessed as cell cycle arrest by measuring accumulation at S phase at 1 uM measured after 24 hrs by RNaseA/propidium iodide staining based flow cytometric analysis (reference value: 7.08 %); design: scale not given: the % may be the effect or the level left

**Q.** What does the source list for O=c1[nH]cc(F)c(=O)[nH]1?
**A.** inhibition [1]: Active; inhibition [2]: Active; Activity [3]: 1.94%; Activity [4]: Active; inhibition [5]: Active; Activity [6]: 12.2%; Activity [7]: 0.36%; Activity [8]: 26.4%; Activity [9]: 27.4%; Activity [10]: 29.5%; Activity [11]: 26.8%; inhibition [12]: Active; Activity [13]: 27.2%; Activity [14]: 70.3%; inhibition [15]: Active; Activity [16]: 70.5%; Activity [17]: 7.99%
